Tests used:
L1210 [1] = assay: In vitro cytotoxicity was measured after 4 hr of exposure against L1210 murine leukemia cells; format: functional, Mus musculus
L1210 [2] = assay: In vitro cytotoxicity was measured after 48 hr of exposure against L1210 murine leukemia cells; format: functional, cell-based; settings: Mus musculus, L1210, 48 h
Mus musculus [3] = assay: In vivo antileukemic activity against L1210 murine leukemia cell after intravenous administration in mice expressed as optimal (non toxic) dose; format: functional
Mus musculus [4] = assay: In vivo antileukemic activity against L1210 murine leukemia in mice after iv administration of compound expressed as T/C ie median survival time of treated versus untreated mice (10); format: functional
Mus musculus [5] = assay: In vivo antileukemic activity against L1210 murine leukemia after intravenous administration in mice expressed as optimal (non toxic) dose; format: functional

Structure (SMILES)	IPol (L1210 [1]) [µM]	IC50 (L1210 [2]) [nM]	OD (Mus musculus [3]) [mg/kg]	T/C (Mus musculus [4]) [%]	other results
Cl.Cn1cc(NC(=O)c2cc(NC(=O)c3cc(NC(=O)/C=C\Cl)cn3C)cn2C)cc1C(=O)NCCC(=N)N	>50				
C=CC(=O)Nc1cc(C(=O)Nc2cc(C(=O)Nc3cc(C(=O)NCCC(=N)N)n(C)c3)n(C)c2)n(C)c1.Cl	>50				
C=C(F)C(=O)Nc1cc(C(=O)Nc2cc(C(=O)Nc3cc(C(=O)Nc4cc(C(=O)NCCC(=N)N)n(C)c4)n(C)c3)n(C)c2)n(C)c1		> 700			
C=C(Br)C(=O)Nc1cc(C(=O)Nc2cc(C(=O)NCCC(=N)N)n(C)c2)n(C)c1		> 1300			
C=C(Cl)C(=O)Nc1cc(C(=O)Nc2cc(C(=O)Nc3cc(C(=O)NCCC(=N)N)n(C)c3)n(C)c2)n(C)c1.Cl	1.47		12.5	117	
C=C(Br)CNc1cc(C(=O)Nc2cc(C(=O)Nc3cc(C(=O)NCCC(=N)N)n(C)c3)n(C)c2)n(C)c1		> 1600			
Cl.Cn1cc(NC(=O)c2cc(NC(=O)c3cc(NC(=O)/C=C/Cl)cn3C)cn2C)cc1C(=O)NCCC(=N)N	>100				
C=C(Br)C(=O)Nc1cc(C(=O)Nc2cc(C(=O)Nc3cc(C(=O)NCCC(=N)N)n(C)c3)n(C)c2)n(C)c1.Cl	0.1035			100	OD (Mus musculus [5]): 12.5 mg/kg
C=C(Br)C(=O)Nc1cc(C(=O)Nc2cc(C(=O)Nc3cc(C(=O)Nc4cc(C(=O)Nc5cc(C(=O)NCCC(=N)N)n(C)c5)n(C)c4)n(C)c3)n(C)c2)n(C)c1.Cl		23	0.78	167	
C=C(Br)C(=O)Nc1cc(C(=O)NCCC(=N)N)n(C)c1		> 13000			
C=C(Br)C(=O)Nc1cc(C(=O)Nc2cc(C(=O)Nc3cc(C(=O)Nc4cc(C(=O)NCCC(=N)N)n(C)c4)n(C)c3)n(C)c2)n(C)c1.Cl			1.56	200	
C=C(Cl)C(=O)Nc1cc(C(=O)Nc2cc(C(=O)Nc3cc(C(=O)Nc4cc(C(=O)NCCC(=N)N)n(C)c4)n(C)c3)n(C)c2)n(C)c1.Cl		3.8	1.56	133	
C=C(F)C(=O)Nc1cc(C(=O)Nc2cc(C(=O)Nc3cc(C(=O)NCCC(=N)N)n(C)c3)n(C)c2)n(C)c1		> 800			

From ChEMBL document CHEMBL1132911, “Cytotoxic halogenoacrylic derivatives of distamycin A” (Bioorg Med Chem Lett, 2000)
